{
  "source": "patent US20120277296A1",
  "about": "“Selective CB2 Receptor Agonists for Use in the Prevention or Treatment of Alcoholic Liver Disease” (priority 2009, published 2012)",
  "key": {"[1]": {"test_system": "TNF-α mRNA expression", "experiment": "Chronic ethanol feeding model: hepatic inflammation, TNF-α mRNA expression by RT-PCR", "type": "in vivo, mouse", "conditions": "WT mice fed EtOH, JWH-133 3 mg/kg daily intraperitoneal during 10 day ethanol feeding, vs. vehicle", "method": "Animals. Female mice (8-10 week old) were used for the experiments and included wild type (WT) C57B1/6J mice (Janvier, France) and mice with a targeted mutation of the Cnr2 gene (Buckley et al. 2000). Homozygous Cnr2−/− animals were obtained from heterozygous Cnr2+/− mice that were backcrossed with WT C57Bl/6J animals over 10 generations, and further intercrossed to obtain homozygous animals. Genotyping was performed on tail genomic DNA using QuantiTect™ SYBR® Green PCR kit (Qiagen). Animals were housed in temperature and humidity controlled rooms, kept on a 12-h light/dark cycle and provided unrestricted amounts of food and water. […]\n(§1) Chronic exposure to ethanol. […] Body weight and food intake were measured daily.\n(§2) The impact of the CB2 agonist JWH-133 or its vehicle was evaluated in WT mice that were treated with a daily intraperitoneal injection of JWH-133 (3 mg/kg) or its vehicle during the 10 day feeding with ethanol. […] Body weight and food intake were measured daily. […]\nRNA preparation and RT-PCR. […] Quantitative real time-PCR was carried out on a Light Cycler (Roche Diagnostics), as previously described (Julien et al. 2005). Oligonucleotide primers (MWG Biotech) for the following mouse genes were used: mouse Rn18S; mouse Tnf, PCR amplified products were analyzed on a 2% agarose gel and sequenced."}, "[2]": {"test_system": "WT mice fed EtOH (EtOH-induced hepatic steatosis)", "experiment": "Chronic ethanol feeding model (modified Lieber-De Carli diet, 10 days): hepatic steatosis", "type": "in vivo, mouse", "conditions": "JWH-133 3 mg/kg daily intraperitoneal during 10 day ethanol feeding, vs. vehicle", "method": "Animals. Female mice (8-10 week old) were used for the experiments and included wild type (WT) C57B1/6J mice (Janvier, France) and mice with a targeted mutation of the Cnr2 gene (Buckley et al. 2000). Homozygous Cnr2−/− animals were obtained from heterozygous Cnr2+/− mice that were backcrossed with WT C57Bl/6J animals over 10 generations, and further intercrossed to obtain homozygous animals. Genotyping was performed on tail genomic DNA using QuantiTect™ SYBR® Green PCR kit (Qiagen). Animals were housed in temperature and humidity controlled rooms, kept on a 12-h light/dark cycle and provided unrestricted amounts of food and water. Animal procedures were conducted in accordance with French government policies (Services Vétérinaires de la Santé et de la Production Animale, Ministère de l'Agriculture).\nas §1, §2\nHepatic triglyceride quantification. […] Triglycerides were quantified with a triglyceride determination kit (Sigma), on liver samples from 10-15 animals per group."}},
  "note": "Entries after “also recorded” stand apart in the source; their conditions may differ.",
  "data": [
    {"smiles": "CCCC(C)(C)c1ccc2c(c1)OC(C)(C)[C@@H]1CC=C(C)C[C@@H]21", "note": "[JWH-133, (6aR,10aR)-3-(1,1-dimethylbutyl)-6a,7,10,10a-tetrahydro-6,6,9-trimethyl-6Hdibenzo[b,d]pyran]", "values": [
      {"measurement": "TNF-α mRNA expression in liver", "setting": "[1]", "value": "prevents the increase; also recorded: reduced TNF-α mRNA levels to control levels"},
      {"measurement": "hepatic triglyceride content", "setting": "[2]", "value": "decrease; also recorded: strongly reduced"},
      {"measurement": "liver/body weight ratio", "setting": "[2]", "value": "decrease; also recorded: strongly reduced"}
    ]}
  ]
}
